Test results reported in US8168619B1, “Hormonal composition based on a progestational agent and an oestrogen and use thereof” (Laboratoire Theramex, priority 1999, dated 2012).
Like-named read-outs stand apart in the source and are kept apart here.

Assays:
[1] = system: ovulation; test: Dose inhibiting ovulation (literature); format: in vivo; settings: NEUMANN; reference progestative norgestrel (=1)
Excerpt: (§1) 2) Apart from the above, it would be reasonable to think that the doses claimed should be based on data from clinical pharmacology and/or clinical data previously published and commonly accepted. Now, if the doses defined as in the PLUNKETT patents are considered, it is easy to see that in most cases the active doses published already a long time ago, i.e. before the said patents were filed (NEUMANN, 1977) or more recently (KUHL, 1996), are very coherent but only rarely lie within the dose ranges claimed in the patents in the name of PLUNKETT (Table 2).

[2] = Dose having a contraceptive effect (literature); format: in vivo; settings: NEUMANN; reference progestative norgestrel (=1)
Excerpt: as §1

[3] = system: endometrium; settings: cited from earlier work
[4] = system: ovulation; settings: cited from earlier work
[5] = NEUMANN publication; cited from earlier work
[6] = system: menopausal women; test: Sequential estrogen-progestative therapy: interval before periods after therapy is interrupted; format: in vivo; settings: Day 13-22, with 30 μg ethinyl estradiol
Description: (§2) Menopausal women, whether naturally or as the result of surgery, were subjected to a sequential estrogen-progestative therapy. From Day 1 to Day 12 they received 30 μg of ethinyl estradiol and then, from Day 13 to Day 22, the same dose of ethinyl estradiol associated with different doses of nomegestrol acetate or chlormadinone acetate. The doses were as follows:
(§3) The number of women was between 2 and 11, depending on the group. There was then a therapeutic pause of 7 days followed by a second treatment cycle.
(§4) The parameters taken into account were as follows: • the interval before periods commenced after the therapy had been interrupted, following the first and second treatment cycles; • the histological appearance of the endometrium recovered in a biopsy carried out between Day 17 and Day 20 of the second cycle.

[7] = system: endometrial cells; test: Sequential estrogen-progestative therapy: histological appearance of endometrium biopsy; format: in vivo, women; settings: for Number of mitoses (% of section in which mitoses were present), Glands: with 30 μg ethinyl estradiol, biopsy Day 17-20 of second cycle
Description: as §2, §3, §4

[8] = system: endometrium; test: Dose inducing transformation of the endometrium (literature); format: in vivo; settings: NEUMANN; reference progestative norgestrel (=1)
Excerpt: as §1

[9] = NEUMANN publication; cited from earlier work; remark: listed apart in the source

Compound	Dose ratio, Contraception (4) [2]	Dose necessary to induce transformation of the endometrium (1) ([3]; NEUMANN publication)	Dose necessary to inhibit ovulation (3) ([4]; NEUMANN publication)	Dose necessary to have a contraceptive effect (4) [5]	Dose ratio, Endometrium (1) [8]	Dose necessary to produce an adequate delay in the onset of periods (2), Menstruation [9]	further results
CC(=O)O[C@]1(C(C)=O)CC[C@H]2[C@@H]3C=C(Cl)C4=CC(=O)[C@@H]5C[C@@H]5[C@]4(C)[C@H]3CC[C@@]21C [CIP acetate, Cyproterone acetate]	8.0	1000 µg/day	1000 µg/day	2000 µg/day	–	–	Dose ratio, Ovulation (3) [1]: 10.0; Dose necessary to induce transformation of the endometrium (1) ([3]; KUHL): 2000 µg/day; Dose necessary to inhibit ovulation (3) ([4]; KUHL): 1000 µg/day
CC(=O)O[C@]1(C(C)=O)CC[C@H]2[C@@H]3C=C(Cl)C4=CC(=O)CC[C@]4(C)[C@H]3CC[C@@]21C [Chlormadinone acetate, chlormadinone acetate]	–	–	–	–	–	–	Interval before the appearance of periods after the therapy is discontinued ([6]; 0.1 mg/day): -2.3 ± 0.5 days; Interval before the appearance of periods after the therapy is discontinued ([6]; 0.5 mg/day): 2.0 ± 0.6 days; Interval before the appearance of periods after the therapy is discontinued ([6]; 1.0 mg/day): 3.8 ± 0.3 days; Interval before the appearance of periods after the therapy is discontinued ([6]; 2.0 mg/day): 3.8 ± 0.3 days; Interval before the appearance of periods after the therapy is discontinued ([6]; 5 mg/day): 5.5 ± 1.5 days; Interval before the appearance of periods after the therapy is discontinued ([6]; 10 mg/day): 5.5 ± 0.5 days; Number of mitoses (% of section in which mitoses were present), Glands ([7]; 0.1 mg/day): 90%; Mitosis in glandular cells ([7]; 1 mg/day, sequential therapy with 30 μg ethinyl estradiol): mitosis is still evident; Number of mitoses (% of section in which mitoses were present), Glands ([7]; 1 mg/day): 50%; Number of mitoses (% of section in which mitoses were present), Glands ([7]; 2 mg/day): 0%; Number of mitoses (% of section in which mitoses were present), Glands ([7]; 5 mg/day): 0%; Number of mitoses (% of section in which mitoses were present), Glands ([7]; 10 mg/day): 0%
C#C[C@]1(O)CC[C@H]2[C@@H]3CCC4=CCCC[C@@H]4[C@H]3CC[C@@]21C [Lynoestrenol]	10.0	5000 µg/day	–	2500 µg/day	4.2	–	–
CC(=O)O[C@]1(C(C)=O)CC[C@H]2[C@@H]3C[C@H](C)C4=CC(=O)CC[C@]4(C)[C@H]3CC[C@@]21C [MPA, medroxyprogesterone acetate]	20.0	5500 µg/day	–	5000 µg/day	–	25000 µg/day	–
C#C[C@]1(OC(C)=O)CC[C@H]2[C@@H]3CCC4=CC(=O)CC[C@@H]4[C@H]3CC[C@@]21C [Norethisterone acetate]	4.0	4500 µg/day	800 µg/day	1000 µg/day	3.8	–	–
C#C[C@]1(O)CC[C@H]2[C@@H]3CCC4=CC(=O)CC[C@@H]4[C@H]3CC[C@@]21C [Norethisterone]	4.0	12500 µg/day	800 µg/day	1000 µg/day	–	5000 µg/day	Dose necessary to induce transformation of the endometrium (1) ([3]; KUHL): 10000 µg/day; Dose necessary to inhibit ovulation (3) ([4]; KUHL): 400 µg/day
C#C[C@]1(O)CC[C@H]2[C@@H]3CCC4=C(CCC(=O)C4)[C@H]3CC[C@@]21C [Norethynodrel]	10.0	10000 µg/day	6000 µg/day	2500 µg/day	8.3	7500 µg/day	–
